In patent US12527739B2 (Alcon Inc., priority 2022, dated 2026):

Key:
M4 muscarinic receptor = molecular target: T1, M4 muscarinic receptor (Homo sapiens, UniProt P08173); assay: Muscarinic receptor radioligand displacement binding, M4
T1 sequence (P08173 1-479): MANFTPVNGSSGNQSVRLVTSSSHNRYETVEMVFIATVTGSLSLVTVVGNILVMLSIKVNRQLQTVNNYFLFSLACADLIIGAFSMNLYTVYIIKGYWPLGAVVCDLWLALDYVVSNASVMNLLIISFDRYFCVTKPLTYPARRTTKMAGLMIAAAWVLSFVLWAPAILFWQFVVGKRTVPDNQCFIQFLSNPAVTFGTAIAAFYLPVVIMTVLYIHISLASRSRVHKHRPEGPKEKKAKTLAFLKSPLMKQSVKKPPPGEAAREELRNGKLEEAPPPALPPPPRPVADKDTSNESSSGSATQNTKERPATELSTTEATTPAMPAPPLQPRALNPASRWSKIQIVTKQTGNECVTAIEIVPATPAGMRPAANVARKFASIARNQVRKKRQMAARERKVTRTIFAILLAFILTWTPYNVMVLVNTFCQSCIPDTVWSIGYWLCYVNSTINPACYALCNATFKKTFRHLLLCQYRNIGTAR

[1] = Concentration of benzyl atropine in freshly prepared simplified formulations; type: physicochemical
Source text: Considerable efforts were made to simplify the formulation to reduce the overall amount of surfactants (Table 11).
The combination of two different species of surfactant was unexpected. […] The efficacy of this “double-buffered” vehicle was unexpected.

[2] = Solubility screen in two simple vehicles, pH 7.4; settings: for pH of the formulation / Actual Concentration: pH 7.4; for Actual Concentration: 5 min vortexing
[3] = 0.78% Sodium Chloride in 30 mM Acetate Buffer, pH 4.55
[4] = 3.5% PEG-400, 0.46% Sodium Chloride in 30 mM Acetate Buffer, pH 4.62
[5] = 3.5% PEG-400, 5.0% PEG-35 Castor Oil, 0.37% Sodium Chloride in 30 mM Acetate Buffer, pH 4.67
[6] = 5.0% PEG-35 Castor Oil, 0.81% Sodium Chloride in 30 mM Acetate Buffer, pH 4.57
[7] = 7.0% PEG-40 Stearate, 0.58% Sodium Chloride in 30 mM Acetate Buffer, pH 4.64
[8] = 7.0% PEG-40 Stearate, 0.65% Sodium Chloride in 5 mM Phosphate Buffer/30 mM Acetate Buffer

Structure (SMILES): CN1C2CCC1CC(OC(=O)C(CO)(Cc1ccccc1)c1ccccc1)C2 (racemic) [Benzyl Atropine, benzyl atropine]
- Ki (M4 muscarinic receptor): 0.6 µM
- binding to the receptor (in words) (M4 muscarinic receptor): bind weakly
- Actual Concentration [1, 3]: 0.92 mg/g
- Final Osmolality [1, 3]: 263.5 mOsm/kg
- Final pH [1, 3]: 7.2
- Actual Concentration [1, 4]: 1.79 mg/g
- Final Osmolality [1, 4]: 287 mOsm/kg
- Final pH [1, 4]: 7.1
- Actual Concentration [1, 5]: 3.95 mg/g
- Final Osmolality [1, 5]: 293 mOsm/kg
- Final pH [1, 5]: 7.4
- Actual Concentration [1, 6]: 3.02 mg/g
- Final Osmolality [1, 6]: 306.5 mOsm/kg
- Final pH [1, 6]: 7.5
- Actual Concentration [1, 7]: 4.62 mg/g
- Final Osmolality [1, 7]: 264.5 mOsm/kg
- Final pH [1, 7]: 7.4
- Actual Concentration [1, 8]: 5.32 mg/g
- Final Osmolality [1, 8]: 291 mOsm/kg
- Final pH [1, 8]: 6.4
- highest achievable concentration that did not re-precipitate ([1]; in the presence of 3.5% PEG-400, 5% PEG-35 castor oil, and 0.37% NaCl): 3.9 mg/g
- pH of the formulation ([2]; 30 mM Phosphate Buffer): 7.9
- Actual Concentration ([2]; 30 mM Phosphate Buffer): 0.29 mg/g
- pH of the formulation ([2]; Phosphate Buffered Saline): 8.0
- Actual Concentration ([2]; Phosphate Buffered Saline): 0.30 mg/g
- dissolution in vehicle (in words) ([2]; both vehicles: 30 mM phosphate buffer pH 7.4 and phosphate-buffered saline pH 7.4): did not entirely dissolve
